Data set [1] deals with Human lung cancer cells (A549). Description: Anticancer effect in vitro on A549 cells (MTT, GI50). In kind it is cell-based. The following applies: A549, 72 hours. As to the method:
The inhibitory effect on the cancer cells of the compounds prepared in Example 1-Example 13, Example 20, Example 48, Example 49 and Example 57 was determined in vitro using cancer cells. The results are shown in table 2, and the specific detection methods are as follows:
Human lung cancer cells were (A549, purchased from Shanghai FuMeng Gene Bio-technology Co., Ltd.) cultured in DMEM containing 2 m M/L-glutamine and 10% FBS, and inoculated in 96-well plate, 200 μL/well and 2000 cells per well; the plate was preincubated for 24 hours under the condition of 5% CO2 and 100% relative humidity at 37° C., allowing for cell adherence.
When the cells adhered, the supernatant was removed, and 200 μL drug-containing culture medium was added with different concentration of compounds into each well (in concentration of 20 μg/ml, 12.5 µg/ml, 6.25 μg/ml, […], 1.5625 μg/ml and 0.78125 μg/ml), 3 multiple wells were set up for each drug concentration as well as blank control (cell culture medium without cells), and drug-free control (with no drugs, filled with complete medium in equal amount only), cultured for 72 hours under the condition of 5% CO2 incubator at 37° C. (100% relative humidity).
After the culture ended, the supernatant was carefully removed, and adding 200 μl DMEM culture medium containing 3% FBS with 500 μg/ml MTT into each well, and culturing for 4 hours under the condition of 5% CO2 incubator at 37° C. (100% relative humidity). After the supernatant was discarded, 150 μL DMSO was added in each well for solving. the GI50 value was measured by detecting the absorbance in the 570 nm wavelength.

Data set [2] concerns human lungs cancer cell strain A549. Put plainly: Tumor inhibitory effect on nude mice bearing A549 tumors. In kind it is in vivo. On the procedure: After digesting and detaching the monolayer-cultured human lungs cancer cell strain A549 (purchased from Shanghai FuMeng Gene Bio-technology Co., Ltd.), cells were collected and resuspended in the serum-free culture medium, and the concentration was adjusted to be 2×10^6/0.2 mL. 0.2 mL cell suspension was taken by injector and transplanted under the skin of square scapula behind left armpit of nude mice, 0.2 mL for each mouse. The tumor volume was measured every 2 or 3 days. The nude mice bearing tumors which rapidly grew without any diabrosis were selected after two weeks. Under the condition of asepsis, the tumors were removed, and cut into tumor tissue with the diameter of approximately 2-3 mm, and then inoculate the tissue under the skin of square scapula behind left armpit of nude mice by trocar. After repetition in three generations, the nude mice received administration randomly in groups excluding the ones bearing too large or too small tumors, when the tumor grew to be about 100 mm^3 in volume.
The selected animals were 6-week old BALB/C nude mice. The male mice were 20-22 g in weight and provided by Shanghai Laboratory Animal Center (SIPPR BK) (production permit No. SCXK (Hu) 2008-0016). The experimental period was totally 111 days.
The experiment was randomly divided into 2 groups, the negative control group consisting of 12 mice (solvent administration only) and treatment group consisting of 12 mice (compound C, 100 mg/kg).
Ethanol was used as cosolvent to promote dissolution of compound C, adding 0.5 w/v % carboxymethyl cellulose to form suspension with a 0.5% final concentration of carboxymethyl cellulose and a 10 w/v % final concentration of ethanol, and then, using ultrasound to form uniform suspension. The dosage for intragastric administration was 0.1 ml/10 g, and the negative control group was only subjected to the same solvent. On the first day of experiment, compound C was given 100 mg/kg in the morning and in the evening respectively, and afterwards, 100 mg/kg was given in every morning only. The negative control group was only given 0.1 ml/10 g of 10 v/v % ethanol 0.5 w/v % carboxymethyl cellulose in every morning.
Index: observing state of animals and measuring body weight daily; measuring tumors by calipers every two days. Sacrifice the animal in 24 hours after the last administration and measure the volume and size of tumor. Dissecting the animal and removing the tumor; weighing the tumor and nude mice; and then, drawing the curves of tumor volume and growth, nude mouse weight, tumor inhibition rate and animal death rate.
Tumor diameter measurement is used to observe the antitumor effect of the test substances dynamically. The formula for tumor volume (TV) calculation is: v=0.5×a×b^2(mm^3); wherein, a and b stand for length and width respectively.
The relative tumor volume (RTV) is calculated according to the measurement result; RTV=Vt/V0, wherein V0 is the tumor volume measured at the beginning of administration (i.e. d0) and Vt is the tumor volume at each measurement.
The index to evaluate antitumor activity is relative tumor proliferation rate T/C (%)
In the above formula, TRTV: RTV of treatment group, CRTV: RTV of negative control group.

Setting [3] is: A549 in nude mice, 100 mg/kg intragastric, 21st day after administration.

The record followed here is patent US9546179B2, “Heterocycle amido alkyloxy substituted quinazoline derivative and use thereof” (priority 2011, dated 2017).

The structures appear in SMILES notation. Marks after values point to notes of the source that are not given here.

As to `COc1cc2ncnc(Nc3ccc(F)c(Cl)c3)c2cc1OCCCN1CCC2(COC2)C1` [Example 2, 4-(3′-chloro-4′-fluorophenylamino)-6-[3-(2-oxa-6-azaspiro[3.4]octane-6-yl)-propoxy]-7-methoxyquinazoline], growth in data set [1] was halved (GI50) at 20.4 µM. The “body weight of the nude mice compared with the control group” value in data set [2] (100 mg/kg intragastric, FIG. 1) is listed as “consistent fluctuation”. In addition, the “average tumor weight compared with the negative group” value in data set [2] (21st day after administration, 100 mg/kg, P<0.05) is listed as “less than the negative group”. For the same compound, in data set [2] (setting [3]), the Tumor mass stood at 0.55 ± 0.43 g and the Tumor volume is listed as 515.4 ± 388.0** mm^3. Further, in data set [2] (A549 in nude mice, 100 mg/kg intragastric, from tumor weight), the Tumor inhibition rate was 47.62%. Besides, the T/C % in data set [2] (A549 in nude mice, 100 mg/kg intragastric, relative tumor proliferation rate) was found to be 43.44%. This compound also came in with an RTV in data set [2] (A549 in nude mice, 100 mg/kg intragastric, relative tumor volume Vt/V0) of 4.57 ± 2.11. Besides, the “tumor volume and size compared with the control group” value in data set [2] (two weeks after administration, 100 mg/kg, p<0.05, FIG. 2) was “significantly less than the control group”.
